Source: patent US20150250746A1, “ACAMPROSATE FORMULATIONS, METHODS OF USING THE SAME, AND COMBINATIONS COMPRISING THE SAME” (Synchroneuron Inc., priority 2013, published 2015)

Legend:
tardive dyskinesia = experiment: Clinical cases: acamprosate in patients with tardive dyskinesia; assay type: in vivo, human; conditions: for relief of TD involuntary movements: Case 2
Procedure: Case 1: A person had long-standing tardive dyskinesia induced by treatment of schizoaffective disorder with a variety of neuroleptics and mood stabilizers. Their TD was characterized by side to side movements of the jaw, grimacing movements, rocking of the trunk, and continual involuntary kicking, leg-crossing, and twisting movements of their legs and feet. At the time they presented for treatment of their TD they were treated for their mental illness with lamotrigine and quetiapine, a second-generation neuroleptic.
To test the hypothesis that the efficacy of acamprosate was related to adequate time above a threshold blood level the patient was asked to try taking 1332 mg of acamprosate once a day.
CASE 2: A person had been treated with acamprosate for several years for TD due to exposure to several neuroleptics for schizoaffective disorder. They were currently treated with lamotrigine and quetiapine for their mental illness, and was taking acamprosate 1032 mg+999 mg+1032 mg on a three times daily basis. […] To test the therapeutic threshold hypothesis the patient was asked to try 1032 mg of acamprosate once a day in the morning. […] They noted that when they got relief of their involuntary movements they also had less anxiety and agitation than when the movements were present.

[1] = test system: cultured rat hippocampus neurons; experiment: Organotypic hippocampal slice model of glutamate neurotoxicity; assay type: cell-based; conditions: 200 μM calcium acamprosate 8 hr or 5 days, removed from medium for up to eight hours
Procedure: The study is designed to test whether pre-treatment with acamprosate can have long-term neuronal protective effects against glutamate neurotoxicity. The study uses an in vitro organotypic hippocampal slice model. The study assesses whether less than 24 hours per day of exposure to a sufficient level of acamprosate can offer 24-hour therapeutic actions in neuropsychiatric disorders. […] This supports, among other things, the therapeutic use of acamprosate in neuropsychiatric disorders because the latter are related to the effect of acamprosate to decrease glutamate effects at NMDA and metabotropic glutamate receptors.
Hippocampal slices derived from 8-day-old Sprague Dawley rats are plated and subsequently exposed to a relatively acute (8 hour) or more chronic (5 day) acamprosate treatment. The slices are then removed from the medium containing acamprosate and returned to control medium for either 1 or 8 hours. […] The slices are then placed in normal medium with propidium iodide for 24 hr and assessed for neurotoxicity/neuroprotection as described below. […]
Neurotoxicity/neuroprotection assessment: For the final medium change, the plates are moved into normal media containing propidium iodide (PI) added to each well for 24 hours. PI only penetrates cell membranes of damaged or potentially dying cells, binding to DNA to produce a bright, intensified red fluorescence at 630 nm. […]

[2] = test system: abnormal chewing movements; experiment: Rat model of tardive dyskinesia (haloperidol-induced abnormal chewing movements); assay type: in vivo; conditions: steadily-maintained blood level; haloperidol-exposed rats
Procedure: Acamprosate is tested using a rat model of tardive dyskinesia looking at abnormal chewing movements produced in rats by exposing them for several weeks to haloperidol, a potent first-generation neuroleptic. […] Rats then are dosed with acamprosate in a way that matches the therapeutic blood level for no more than 12 hours out of 24, to confirm that this reduces the involuntary movements.

[3] = in vivo; cited from earlier work
[4] = cited from earlier work
abnormal movements = experiment: Transgenic mouse models with movement disorders and hyperglutamatergic states; assay type: in vivo; conditions: steadily-maintained blood level; Per2(Brdm1) deletion or ENT1(-/-) mice
[5] = Gastric retention of swellable acamprosate tablet in dog model, induction of fed mode with alpha-lipoic acid; assay type: in vivo; conditions: of 800 mg swellable acamprosate tablet after 125 mg alpha-lipoic acid given 15 minutes before; four beagle dogs

Average gastric retention time [5] [h] | Maximum gastric retention time [5] [h] | Minimum gastric retention time [5] [h] | Compound | relief of TD symptoms (tardive dyskinesia; Case 1, 666 mg three times a day) | relief of TD symptoms (tardive dyskinesia; Case 1, 999 mg three times a day) | anxiety and agitation (tardive dyskinesia; Case 1, 999 mg three times a day with perphenazine) | relief of TD symptoms (tardive dyskinesia; Case 1, 1332 mg once a day) | side effects (tardive dyskinesia; Case 1, 1332 mg once a day) | relief of TD involuntary movements (tardive dyskinesia; 999 mg three times a day) | relief of TD involuntary movements (tardive dyskinesia; 1032 mg morning plus second dose of 1032 mg 8 to 10 hours later) | relief of TD involuntary movements (tardive dyskinesia; 1032 mg once a day in the morning) | relief of TD involuntary movements (tardive dyskinesia; 1032 mg+999 mg+1032 mg three times daily) | protection of neurons from challenge with a toxic level of a glutamate agonist [1] | abnormal chewing movements [2] | decrease of bioavailability by food [3] | solubility [4] | solubility in gastric juice [4] | abnormal movements (abnormal movements)
 |  |  | CC(=O)NCCCS(=O)(=O)O [acamprosate, calcium N-acetylhomotaurinate] | partial relief of symptoms | complete relief of their TD | relief of anxiety and agitation | free of involuntary movements of TD | significant GI side effects of diarrhea and abdominal cramps | did not give full relief | complete relief of symptoms | free of movements in the morning and early afternoon but movements returned in the evening | completely relieved their involuntary movements of TD | persistent effect | reduce or eliminate the abnormal movements | approximately 30% | high solubility | immediately and completely soluble | reduce or eliminate the abnormal movements
2.8 | 5 | 1.5 | O=C(O)CCCCC1CCSS1 (stereo not drawn) [alpha-lipoic acid] |  |  |  |  |  |  |  |  |  |  |  |  |  |  | 
